These results are taken from patent US10159672B2 (PARION SCIENCES, INC., priority 2011, dated 2018).

Series [1] deals with Human Bronchial Epithelial Cells. In words: Absorption rate across human bronchial epithelial cells. The class given is in vitro ADME. Particulars: n=3. As for the experimental part:
Bronchial cells (dog, human, sheep, or rodent cells) are seeded at a density of 0.25×10^6/cm^2 on a porous Transwell-Col collagen-coated membrane with a growth area of 1.13 cm^2 grown at an air-liquid interface in hormonally defined media that promotes a polarized epithelium. From 12 to 20 days after development of an air-liquid interface (ALI) the cultures are expected to be >90% ciliated, and mucins will accumulate on the cells. To ensure the integrity of primary airway epithelial cell preparations, the transepithelial resistance (R1) and transepithelial potential differences (PD), which are indicators of the integrity of polarized nature of the culture, are measured. […] Concentrations are determined by measuring intrinsic fluorescence of each sodium channel blocker using a Fluorocount Microplate Flourometer or HPLC. Quantitative analysis employs a standard curve generated from authentic reference standard materials of known concentration and purity. […]
In the first series of assays, the interaction of test compounds in KBR as an “ASL” stimulant are applied to the apical surface of human airway epithelial cells grown in the T-Col insert system. […] In instances where the fluorescence properties of the test molecule are not adequate for such characterizations, radiolabeled compounds are used for these assays. […]

Series [2] deals with Canine Bronchial Epithelial Cells. Nature of the series: Durability of retention of airway surface liquid. The class given is cell-based.
Series [3] is described as follows: Human plasma protein binding. Particulars: n=6, read-out: Human Plasma Protein Binding, bound to plasma proteins (converted). The series is classed as in vitro ADME.
The test system of another series is ExLac Rats. Nature of the series: Phenol red thread (PRT) measurement of tear output in ExLac rats. The series is classed as in vivo, Sprague Dawley. As for the experimental part:
Procedures for Phenol Red Thread (PRT) Measurement of Tear Output:
Animal Species/Strain: Rats, Sprague Dawley (SD); Lacrimal gland surgically removed (ExLac).
Animal Number/Sex: 3-4 females/group
Test Article Formulation: All stock solutions for each dosing arm were prepared no more than 48 hours prior to the start of the study. The concentration of ENaC blockers in all test article solutions were confirmed by spectrophotometry.
Test Article Administration: Both the ipsilateral and contralateral eyes were dosed with 5 […]1 of test article solution.
Phenol Red Thread (PRT) Test: Tear production was measured using the ZoneQuick cotton thread with impregnated phenol red dye. The folded end of the thread was held in the lateral-ventral conjunctival cul-de-sac for 10 seconds. The length of tear wicking onto the thread was determined by measuring the length of the thread that changes color from yellow to red. Use of a stereomicroscope was assist in the accurate measurement (recorded in millimeters) of the wicking/color change.

Series [4] concerns New Zealand White rabbits. Nature of the series: Acute non-GLP ocular toxicity / tolerability study. The class given is in vivo. As for the experimental part: • An Acute Non-GLP Ocular Toxicity Study In New Zealand White Rabbits With P-1046
The purpose of this study was to evaluate the ocular tolerability and systemic exposure of P-1046, an inhibitor of the epithelial sodium channel (ENaC), when administered as a topical instillation to New Zealand white rabbits.
The test article (P-1046) were supplied as a light yellow white powder. The test articles were then prepared into dosing solutions for topical ocular application. Twenty-eight experimentally naïve male New Zealand White rabbits, approximately 4 months old at the outset of the study and weighing 2.6-3.1 kilograms at randomization were assigned to treatment groups as shown in the table below:
Animals were administered 50 μl of the test or control vehicle onto the globe of right eye and 50 μl of saline onto the globe of the left eye eight times (approximately one hour between each dose) in Groups 1 and 6 and four times (approximately two hours between each dose) in Group 7. Mortality and clinical observations were recorded daily. Body weights were recorded at randomization/selection and prior to sacrifice on Day 2. For blink rate assessment, eye blinks in the right eye only were counted for 3 minutes prior to treatment initiation and following all doses. Instances of wincing and pawing at the eyes during the 3-minute eye blink observation period were recorded as clinical observations. Food consumption was recorded daily. Eyes were scored according to Draize prior to treatment, following each dose and on Day 2 at approximately 24 hours post-dose. Blood for toxicokinetic evaluation was collected from animals in Group 2-7 at pre-dose, 30 minutes after the middle dose (4th dose in groups 3, 5, and 6; 2nd dose in groups 2, 4, and 7) and at 30, 60, 120 and 240 minutes following the final dose on Day 1. Blood samples for evaluation of serum chemistry parameters were collected prior to treatment initiation and at 120 and 240 min following the final dose. Urine samples were collected over a 4-hour period following the final dose. All animals were sacrificed following completion of study procedures on Day 2.

[5] abbreviates: 10 mM x 8 doses and 30 mM x 4 doses, topical ocular, rabbit.

Take `CN(C)C(=O)[C@H](CCCCNC(=N)N)NC(=O)[C@H](CCc1ccc(CCCCNC(=N)NC(=O)c2nc(Cl)c(N)nc2N)cc1)N(C)C` [Compound I, 3,5-diamino-6-chloro-N-(N-(4-(4-((S)-3-(dimethylamino)-4-((S)-1-(dimethylamino)-6-guanidino-1-oxohexan-2-ylamino)-4-oxobutyl)phenyl)butyl)carbamimidoyl)pyrazine-2-carboxamide]: the “Absorption Rate Across Human Bronchial Epithelial Cells” value in series [1] came to 0.12±0.05 nM/cm^2/min. For the same molecule, the “Durability of Retention of Airway Surface Liquid, fluid retained” value in series [2] (8 hours after drug delivery, n=3) is listed as 94±5%. Also, the “Durability of Retention of Airway Surface Liquid, fluid retained” value in series [2] (24 hours after drug delivery, n=2) is listed as 56±6%. The fraction unbound in series [3] was 0.2. The “Tear output (PRT) in ExLac rats, duration of effect” value in the series with ExLac Rats (2 hours post-dose, all dose groups except 0.1 mM) is listed as “still observed”. Also, the “Tear output (PRT) in ExLac rats” value in the series on ExLac Rats (all concentrations, 15 minutes post-dose, n=4) is given as “increases tear output in ExLac rats 15 minutes post-dose at or slightly below tear output values observed for normal rats”. For the same molecule, in the series on ExLac Rats (single 10 mM dose, baseline corrected, p <0.03), the “Tear output, baseline corrected data, significance vs vehicle” value is “statistically significant at all post-dose time points”. Further, in the series on ExLac Rats (single 10 mM dose, n=3), the “Tear volume relative to vehicle controls” value was “increased tear volume relative to vehicle controls”. In addition, the “Tear output, raw data, significance vs vehicle” value in the series with ExLac Rats (single 10 mM dose, raw PRT values) is “not significant beyond 60 minutes”. Besides, the “Appearance of eyes on Day 2” value in series [4] (10 mM group) is recorded as “appeared normal”. For the same molecule, in series [4] (setting [5]), the Average blink rate result is “only slight increases at some time points, similarly to vehicle treated animals” and the “Cumulative Draize scores (right eye)” value is given as “only slight increases in Draize scoring which are not greater than those observed for vehicle treated animals”. Also, in series [4] (10 and 30 mM), the “Post-dose conjunctival redness, severity and incidence” value was “comparable to the vehicle controls”; the Stinging on instillation result is on record as “do not cause stinging”. Further, the Ocular tolerability entry in series [4] (10 and 30 mM formulations) is recorded as “well tolerated”.
